Columns and labels:
[1] = tested on: CA-IX-positive HT-29 cells; test: In vitro CA-IX affinity and specificity, cell binding, cells lysed at 37° C. (Example 18); format: cell-based; settings: for Inhibition of cell binding by acetazolamide: HT-29 cells, normoxic and hypoxic; for Inhibition of cell binding by acetazolamide / Selectivity of binding to CA-IX: lysis at 37° C.; for Selectivity of binding to CA-IX: HT-29 vs MDA-MB-231 cells
Experimental: (§1) HT-29 cells (purchased from Dainippon Sumitomo Pharma Co., Ltd.) and MDA-MB-231 cells (purchased from Dainippon Sumitomo Pharma Co., Ltd.) were incubated in a 12-well plate (2.0×10^5 cells/well) at 37° C. for 24 hours under an atmosphere of 5% carbon dioxide and 21% oxygen, and then further incubated at 37° C. for 24 hours under an atmosphere of 5% carbon dioxide and 21% or 1% oxygen. After the culture medium was removed, Dulbecco's modified Eagle's medium (DMEM, 1 mL) containing[^111In]ITDA1 (14 kBq), [^111In]ITDA2 (26 kBq), or [^111In]ITDA3 (37 kBq) was added to each well, and then the incubation was performed at 37° C. for 2 hours under an atmosphere of 5% carbon dioxide and 21% or 1% oxygen. In addition, a separate plate was incubated in a similar manner as in the above except that acetazolamide (AZ, 50 μM) was added to [^111In]ITDA1 (14 kBq), [^111In]ITDA2 (26 kBq), or [^111In]ITDA3 (37 kBq) as a competitive compound for CA-IX. After that, each well was washed with 1 mL of phosphate-buffered saline (PBS, pH 7.4) (manufactured by NACALAI TESQUE, INC.), and the cells were lysed at room temperature in an aqueous solution of 1 N sodium hydroxide ([^111In]ITDA1: 0.25 mL×2, [^111In]ITDA2: 0.5 mL×2, and [^111In]ITDA3: 0.2 mL×2). The amount of radioactivity bound to the cells was measured by a gamma counter (model name: Wallac 1470 Wizard, PerkinElmer, Massachusetts, made in U.S.A., the same applies to the following examples).
(§2) Example 18 was performed similarly as in Example 11 except that the cells were lysed in a constant temperature water bath at 37° C. The accumulation of radioactivity in each cell was expressed by % initial dose/mg protein obtained by dividing the ratio of the amount of radioactivity bound to each cell to the added amount of radioactivity by the amount of cell protein.

[2] = tested on: CA-IX-negative MDA-MB-231 cells; test: as above; format: cell-based; settings: for Inhibition of cell binding by acetazolamide: MDA-MB-231 cells, normoxic and hypoxic, lysis at 37° C.
Experimental: as §1, §2

[3] = 1-octanol/PBS (pH 7.4) partition coefficient; format: physicochemical
Experimental: The 1-octanol/PBS (pH 7.4) partition coefficients of [^111In]ITDA1 and [^111In]ITDA2, which were obtained in Example 6, and [^111In]ITDA3 obtained in Example 10 were measured.
The above two phases were saturated with each other in advance, and 1-octanol (3 mL) and PBS (3 mL) were pipetted into a 15-mL test tube containing [^111In]ITDA1 (37 kBq), [^111In]ITDA2 (37 kBq), or [^111In]ITDA3 (370 kBq). The test tube was vortexed for 2 minutes and centrifuged (4,000 g, 5 minutes). 0.5 mL was taken from each of the 1-octanol phase and the PBS phase, and transferred to two test tubes, respectively for measurement. The residual PBS phase (1 mL), and newly prepared 1-octanol (3 mL) and PBS (2 mL) were pipetted into a new test tube. The amount of radioactivity in each test tube was measured by using a gamma counter. The partition coefficient was calculated by using the equation log Pow=log10[count1-octanol/countPBS]. As a result, the log Pow of [^111In]ITDA1 was −3.72±0.05, the log Pow of [^111In]ITDA2 was −2.32±0.01, and the log Pow of [^111In]ITDA3 was −3.47±0.09.

[4] = tested on: CA-IX-positive HT-29 cells; test: In vitro CA-IX affinity and specificity, cell binding, cells lysed at room temperature (Example 11); format: cell-based; settings: for Inhibition of cell binding by acetazolamide: HT-29 cells, AZ 50 μM, 21% or 1% oxygen, lysis at room temperature; for Selectivity of binding to CA-IX: HT-29 vs MDA-MB-231 cells, room temperature lysis
Experimental: as §1
(§3) FIG. 3A is a graph showing whether or not the affinity of compound [^111In]ITDA1 for CA-IX in each of the HT-29 cells and the MDA-MB-231 cells is inhibited by the coexistence of acetazolamide (AZ). Further, FIG. 3B is a graph showing whether or not the affinity of compound [^111In]ITDA2 for CA-IX in each of the HT-29 cells and the MDA-MB-231 cells is inhibited by the coexistence of acetazolamide (AZ). Moreover, FIG. 3C is a graph showing whether or not the affinity of compound [^111In]ITDA3 for CA-IX in each of the HT-29 cells and the MDA-MB-231 cells is inhibited by the coexistence of acetazolamide (AZ).

[5] = tested on: CA-IX-negative MDA-MB-231 cells; test: as above; format: cell-based; settings: AZ 50 μM, 21% or 1% oxygen, lysis at room temperature
Experimental: as §1, §3

[6] = In vitro stability in mouse plasma; format: in vitro ADME; settings: 37° C.; for Stability in mouse plasma: 24-hour incubation; for Stability (intact (%)): mouse plasma
Experimental: Blood was collected from a ddy mouse (purchased from Shimizu Laboratory Supplies Co., Ltd.), and centrifuged (1,200 g, 10 minutes) in a venous blood collection tube (manufactured by Becton, Dickinson and Company). The blood plasma (200 μL) was separated, a saline solution (185 kBq) of [^111In]ITDA1, [^111In]ITDA2, or [^111In]ITDA3 was added into the blood plasma, and the obtained mixture was incubated at 37° C. for 1, 4, 8, and for 24 hours (n=3). Further, into the incubated mixture, acetonitrile (200 μL) was added, and then the mixture was centrifuged (10,000 g, 5 minutes), the supernatant was filtered with COSMONICE Filter (S) (0.45 μm, 4 mm) (manufactured by NACALAI TESQUE, INC.), and the filtrate was analyzed by RP-HPLC under the following conditions. In this regard, the intact % in FIGS. 4A and 4B was determined from the area percentage of the RP-HPLC elution pattern.
Column: Cosmosil Cis column (5C18-PAQ, 4.6×250 mm)
Mobile phase: water/acetonitrile/trifluoroacetic acid (90: 10: 0.1 (0 min)→60: 40: 0.1 (30 min)), and flow rate for analysis: 1.0 mL/min

[7] = 1% Oxygen AZ(+), acetazolamide 50 μM
[8] = 21% Oxygen AZ(+), acetazolamide 50 μM

log Pow [3] | Stability in mouse plasma [6] | SMILES | Amount of binding to HT-29 cells [1, 7] | Amount of binding to HT-29 cells ([1]; 1% Oxygen AZ(−)) | Amount of binding to HT-29 cells [1, 8] | Amount of binding to HT-29 cells ([1]; 21% Oxygen AZ(−)) | Inhibition of cell binding by acetazolamide [1] | Selectivity of binding to CA-IX [1] | Amount of binding to MDA-MB-231 cells [2, 7] | Amount of binding to MDA-MB-231 cells ([2]; 1% Oxygen AZ(−)) | Amount of binding to MDA-MB-231 cells [2, 8] | Amount of binding to MDA-MB-231 cells ([2]; 21% Oxygen AZ(−)) | Inhibition of cell binding by acetazolamide [2] | Inhibition of cell binding by acetazolamide [4] | Selectivity of binding to CA-IX [4] | Inhibition of cell binding by acetazolamide [5] | also measured
−3.72±0.05 | sufficient stability | NS(=O)(=O)c1nn2cc(-c3ccc(NC(=O)CN4CCN(CC(=O)O)CCN(CC(=O)O)CCN(CC(=O)O)CC4)cc3)nc2s1.[111In+3] [[^111In]ITDA1, [^111In]indium(III)2,2′,2″-(10-(2-oxo-2-((4-(2-sulfamoylimidazo[2,1-b][1,3,4]thiadiazol-6-yl)phenyl)amino)ethyl)-1,4,7,10-tetraazacyclododecan-1,4,7-triyl) triacetic acid] | 2.2 ± 0.5 % initial dose/mg protein | 198.9 ± 5.7 % initial dose/mg protein | 0.9 ± 0.2 % initial dose/mg protein | 118.1 ± 21.4 % initial dose/mg protein | the inhibition was observed in the presence of acetazolamide | selectively bind to the CA-IX | 0.1 ± 0.0 % initial dose/mg protein | 6.5 ± 0.8 % initial dose/mg protein | 0.1 ± 0.0 % initial dose/mg protein | 1.4 ± 0.3 % initial dose/mg protein | the competitive inhibition was not observed | the inhibition was observed in the presence of acetazolamide | selectively bind to the CA-IX | the competitive inhibition was not observed | 
−2.32±0.01 | sufficient stability | NS(=O)(=O)c1nn2cc(-c3ccc(NC(=O)CN4CCN(CC(=O)O)CCN(CC(=O)Nc5ccc(-c6cn7nc(S(N)(=O)=O)sc7n6)cc5)CCN(CC(=O)O)CC4)cc3)nc2s1.[111In+3] [[^111In]ITDA2, [^111In]indium(III)2,2′-(4,10-bis(2-oxo-2-((4-(2-sulfamoylimidazo[2,1-b][1,3,4]thiadiazol-6-yl)phenyl)amino)ethyl)-1,4,7,10-tetraazacyclododecan-1,7-diyl) diacetic acid] | 12.1 ± 3.7 % initial dose/mg protein | 109.2 ± 6.7 % initial dose/mg protein | 7.6 ± 2.3 % initial dose/mg protein | 48.3 ± 5.9 % initial dose/mg protein | the inhibition was observed in the presence of acetazolamide | selectively bind to the CA-IX | 0.7 ± 0.1 % initial dose/mg protein | 2.9 ± 0.4 % initial dose/mg protein | 1.4 ± 0.2 % initial dose/mg protein | 2.5 ± 0.5 % initial dose/mg protein | the competitive inhibition was not observed | the inhibition was observed in the presence of acetazolamide | selectively bind to the CA-IX | the competitive inhibition was not observed | 
−3.47±0.09 |  | NS(=O)(=O)c1nn2cc(-c3ccc(NC(=O)CCC(C(=O)O)N4CCN(CC(=O)[O-])CCN(CC(=O)[O-])CCN(CC(=O)[O-])CC4)cc3)nc2s1.[111In+3] (stereo not shown) [[^111In]ITDA3] | 1.0 ± 0.1 % initial dose/mg protein | 93.4 ± 16.0 % initial dose/mg protein | 0.3 ± 0.0 % initial dose/mg protein | 47.2 ± 6.8 % initial dose/mg protein | the inhibition was observed in the presence of acetazolamide | selectively bind to the CA-IX | 0.1 ± 0.0 % initial dose/mg protein | 2.0 ± 1.1 % initial dose/mg protein | 0.2 ± 0.0 % initial dose/mg protein | 0.5 ± 0.1 % initial dose/mg protein | the competitive inhibition was not observed | the inhibition was observed in the presence of acetazolamide | selectively bind to the CA-IX | the competitive inhibition was not observed | Stability (intact %) in mouse plasma ([6]; incubation for 1 to 24 hours): ≥ 95%; Stability (intact (%)) ([6]; 1 h): 97.4 ± 0.8%; Stability (intact (%)) ([6]; 4 h): 99.0 ± 0.6%; Stability (intact (%)) ([6]; 8 h): 98.0 ± 0.1%; Stability (intact (%)) ([6]; 24 h): 98.8 ± 0.4%

— patent US20210322582A1, “RADIOACTIVE IMIDAZOTHIADIAZOLE DERIVATIVE COMPOUND” (Nihon Medi-Physics Co., Ltd., priority 2018, published 2021)
